This note sets out measurements from ChEMBL document CHEMBL1909551, “Design, synthesis and in vitro evaluation of bridgehead fluoromethyl analogs of N-{2-[4-(2-methoxyphenyl)piperazin-1-yl]ethyl}-N-(pyridin-2-yl)cyclohexanecarboxamide (WAY-100635) for the 5-HT(1A) receptor” (Eur J Med Chem, 2011).

Data set [1] addresses T1, Alpha-1A adrenergic receptor (Homo sapiens, UniProt P35348).
T1 sequence (P35348 whole entry): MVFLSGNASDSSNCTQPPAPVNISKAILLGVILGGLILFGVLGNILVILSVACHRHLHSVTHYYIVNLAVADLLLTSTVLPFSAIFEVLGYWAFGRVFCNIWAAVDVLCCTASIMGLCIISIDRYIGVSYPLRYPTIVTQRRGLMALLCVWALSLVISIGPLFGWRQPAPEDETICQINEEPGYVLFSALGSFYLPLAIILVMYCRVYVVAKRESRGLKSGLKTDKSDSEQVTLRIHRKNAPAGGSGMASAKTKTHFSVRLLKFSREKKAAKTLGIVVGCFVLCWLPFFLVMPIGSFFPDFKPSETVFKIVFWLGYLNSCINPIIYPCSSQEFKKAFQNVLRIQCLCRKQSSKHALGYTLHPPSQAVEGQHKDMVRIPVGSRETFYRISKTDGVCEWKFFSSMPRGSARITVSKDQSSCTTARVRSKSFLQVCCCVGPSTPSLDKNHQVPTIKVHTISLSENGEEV
Description: Binding affinity to alpha1A receptor

Data set [2] has as its system Hepatocyte. To be noted: human, hepatocytes, 2.5 h.
Description: Metabolic stability in human hepatocytes assessed as compound remaining at 50 MBq after 150 mins by radioactivity-based HPLC analysis
In data set [3] the target is T2, 5-hydroxytryptamine receptor 1A (Homo sapiens, UniProt P08908).
T2 sequence (P08908 whole entry): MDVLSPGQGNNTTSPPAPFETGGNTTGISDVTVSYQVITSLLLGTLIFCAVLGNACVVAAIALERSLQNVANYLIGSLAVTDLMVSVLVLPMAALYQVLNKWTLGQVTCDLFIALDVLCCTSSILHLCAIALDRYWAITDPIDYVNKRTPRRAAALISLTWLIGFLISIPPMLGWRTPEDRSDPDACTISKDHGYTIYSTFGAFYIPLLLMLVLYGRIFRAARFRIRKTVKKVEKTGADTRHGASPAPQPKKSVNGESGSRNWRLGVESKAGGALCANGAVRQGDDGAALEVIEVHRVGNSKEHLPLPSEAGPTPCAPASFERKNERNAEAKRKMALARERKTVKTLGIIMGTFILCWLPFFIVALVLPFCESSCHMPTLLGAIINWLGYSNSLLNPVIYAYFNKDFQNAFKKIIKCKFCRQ
In words: biochemical.
Description: Displacement of [3H]8-OH-DPAT from human 5HT1A receptor expressed in HEK293 EBNA cells after 2 hrs by liquid scintillation counting

Data set [4] has as its target T3, Alpha-1D adrenergic receptor (Homo sapiens, UniProt P25100).
T3 sequence (P25100 whole entry): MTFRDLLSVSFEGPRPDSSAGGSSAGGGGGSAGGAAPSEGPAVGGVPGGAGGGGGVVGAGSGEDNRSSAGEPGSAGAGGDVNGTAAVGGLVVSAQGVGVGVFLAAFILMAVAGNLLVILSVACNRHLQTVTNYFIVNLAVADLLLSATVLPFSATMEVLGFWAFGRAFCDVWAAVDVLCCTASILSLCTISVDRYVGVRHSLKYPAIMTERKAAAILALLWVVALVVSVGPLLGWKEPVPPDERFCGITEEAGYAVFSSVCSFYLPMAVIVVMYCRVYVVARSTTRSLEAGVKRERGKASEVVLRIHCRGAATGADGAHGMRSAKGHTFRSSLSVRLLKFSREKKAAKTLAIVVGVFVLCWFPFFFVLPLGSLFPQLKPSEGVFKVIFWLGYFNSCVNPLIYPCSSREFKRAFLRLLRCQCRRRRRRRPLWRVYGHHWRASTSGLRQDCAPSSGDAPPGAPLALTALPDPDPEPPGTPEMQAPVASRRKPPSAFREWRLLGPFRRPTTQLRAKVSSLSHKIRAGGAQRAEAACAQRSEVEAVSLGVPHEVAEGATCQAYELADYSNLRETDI
Briefly: biochemical.
Description: Displacement of [3H]prazosin from Alpha-1D receptor expressed in HEK293 EBNA cells by radioligand binding assay

The target in data set [5] is T1, Alpha-1A adrenergic receptor. In words: biochemical.
Description: Displacement of [3H]prazosin from alpha1A receptor expressed in HEK293 EBNA cells by radioligand binding assay
The target of data set [6] is 5-hydroxytryptamine receptor 1D (Homo sapiens, UniProt P28221). In words: biochemical.
Chain of 5-hydroxytryptamine receptor 1D (P28221 whole entry): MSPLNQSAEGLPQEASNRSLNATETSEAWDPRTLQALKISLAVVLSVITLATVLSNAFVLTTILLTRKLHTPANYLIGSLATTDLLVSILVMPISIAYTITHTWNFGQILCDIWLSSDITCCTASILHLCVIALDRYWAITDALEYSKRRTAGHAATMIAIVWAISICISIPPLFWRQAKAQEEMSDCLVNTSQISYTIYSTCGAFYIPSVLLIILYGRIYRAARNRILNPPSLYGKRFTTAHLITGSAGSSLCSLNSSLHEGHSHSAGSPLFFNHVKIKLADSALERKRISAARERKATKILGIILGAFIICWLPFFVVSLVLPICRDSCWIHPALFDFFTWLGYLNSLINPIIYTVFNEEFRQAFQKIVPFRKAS
Description: Displacement of [3H]GR127543 from 5HT1D receptor expressed in HEK293 EBNA cells by radioligand binding assay
The next data set can be described thus: physchem. To be noted: buffer, pH 7.4.
The target in data set [7] is 5-hydroxytryptamine receptor 7 (Homo sapiens, UniProt P34969). Briefly: biochemical.
Chain of 5-hydroxytryptamine receptor 7 (P34969 whole entry): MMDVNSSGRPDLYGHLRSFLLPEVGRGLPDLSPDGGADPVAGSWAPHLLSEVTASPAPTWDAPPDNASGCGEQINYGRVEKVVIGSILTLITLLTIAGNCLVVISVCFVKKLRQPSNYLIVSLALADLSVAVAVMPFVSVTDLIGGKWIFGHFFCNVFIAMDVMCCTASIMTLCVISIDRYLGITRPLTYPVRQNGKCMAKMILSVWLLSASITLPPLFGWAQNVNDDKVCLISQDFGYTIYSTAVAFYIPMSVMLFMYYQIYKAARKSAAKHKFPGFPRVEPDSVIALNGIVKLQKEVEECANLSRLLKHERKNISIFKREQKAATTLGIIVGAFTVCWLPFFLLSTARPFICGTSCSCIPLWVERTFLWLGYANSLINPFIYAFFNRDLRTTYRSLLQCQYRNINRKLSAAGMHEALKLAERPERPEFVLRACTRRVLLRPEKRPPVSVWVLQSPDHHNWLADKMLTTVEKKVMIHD
Description: Displacement of [3H]LSD from 5HT7 receptor expressed in HEK293 EBNA cells by radioligand binding assay
The target in the next data set is T4, D(4) dopamine receptor (Homo sapiens, UniProt P21917).
T4 sequence (P21917 whole entry): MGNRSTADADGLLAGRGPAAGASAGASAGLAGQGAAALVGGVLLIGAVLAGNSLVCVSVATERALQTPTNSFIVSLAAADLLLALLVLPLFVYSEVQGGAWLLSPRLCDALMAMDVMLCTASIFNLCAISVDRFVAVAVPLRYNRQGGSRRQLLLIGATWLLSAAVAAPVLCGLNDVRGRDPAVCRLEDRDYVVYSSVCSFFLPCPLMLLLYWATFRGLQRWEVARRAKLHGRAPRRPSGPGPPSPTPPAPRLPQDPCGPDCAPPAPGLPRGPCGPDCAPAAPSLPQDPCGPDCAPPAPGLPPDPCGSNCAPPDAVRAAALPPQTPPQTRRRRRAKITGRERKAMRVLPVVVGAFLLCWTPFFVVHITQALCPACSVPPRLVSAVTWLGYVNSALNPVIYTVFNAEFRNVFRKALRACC
Briefly: biochemical.

The target in data set [8] is T5, Alpha-1B adrenergic receptor (Homo sapiens, UniProt P35368).
T5 sequence (P35368 whole entry): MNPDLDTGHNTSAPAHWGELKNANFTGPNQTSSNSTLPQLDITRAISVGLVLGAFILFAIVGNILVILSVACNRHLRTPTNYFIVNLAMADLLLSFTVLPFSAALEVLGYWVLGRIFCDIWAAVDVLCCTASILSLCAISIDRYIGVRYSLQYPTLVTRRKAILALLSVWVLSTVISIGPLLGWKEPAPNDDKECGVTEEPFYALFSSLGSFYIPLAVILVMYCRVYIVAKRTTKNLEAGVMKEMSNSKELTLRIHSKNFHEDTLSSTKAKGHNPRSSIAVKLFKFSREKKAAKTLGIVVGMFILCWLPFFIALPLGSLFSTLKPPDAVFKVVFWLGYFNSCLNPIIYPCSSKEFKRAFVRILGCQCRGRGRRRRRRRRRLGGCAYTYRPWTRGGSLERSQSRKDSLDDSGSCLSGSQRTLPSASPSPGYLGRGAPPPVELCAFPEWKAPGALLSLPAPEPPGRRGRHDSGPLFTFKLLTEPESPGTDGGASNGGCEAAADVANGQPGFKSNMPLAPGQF
In words: biochemical.
Description: Displacement of [3H]prazosin from Alpha-1B receptor expressed in HEK293 EBNA cells by radioligand binding assay

In data set [9] the target is 5-hydroxytryptamine receptor 2B (Homo sapiens, UniProt P41595). In words: biochemical.
Chain of 5-hydroxytryptamine receptor 2B (P41595 whole entry): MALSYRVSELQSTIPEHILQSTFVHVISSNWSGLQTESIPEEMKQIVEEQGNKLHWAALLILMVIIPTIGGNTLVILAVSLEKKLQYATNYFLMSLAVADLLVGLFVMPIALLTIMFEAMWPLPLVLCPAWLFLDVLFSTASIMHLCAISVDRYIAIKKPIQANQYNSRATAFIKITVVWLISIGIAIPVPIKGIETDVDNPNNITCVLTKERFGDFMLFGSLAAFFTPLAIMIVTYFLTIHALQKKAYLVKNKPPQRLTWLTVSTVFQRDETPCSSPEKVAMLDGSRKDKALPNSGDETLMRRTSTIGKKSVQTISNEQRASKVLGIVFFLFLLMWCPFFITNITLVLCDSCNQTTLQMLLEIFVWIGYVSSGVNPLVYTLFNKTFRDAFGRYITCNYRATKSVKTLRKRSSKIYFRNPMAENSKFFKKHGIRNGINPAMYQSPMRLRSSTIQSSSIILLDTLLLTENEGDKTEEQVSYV
Description: Displacement of [3H]LSD from 5HT2B receptor expressed in HEK293 EBNA cells by radioligand binding assay
For data set [10], the target named is T2, 5-hydroxytryptamine receptor 1A. In words: biochemical. The source holds these as a separate data set.
Description: Displacement of [3H]8-OH-DPAT from 5HT1A receptor expressed in HEK293 EBNA cells by radioligand binding assay
Data set [11] concerns Hepatocyte. To be noted: human, hepatocytes, 0.25 h.
Description: Metabolic stability in human hepatocytes assessed as compound remaining at 50 MBq after 15 mins by radioactivity-based HPLC analysis
Data set [12] has as its system Hepatocyte. To be noted: human, hepatocytes, 1 h.
Description: Metabolic stability in human hepatocytes assessed as compound remaining at 50 MBq after 60 mins by radioactivity-based HPLC analysis

Description for D(4) dopamine receptor: Displacement of [3H]N-methylspiperone from dopamine D4 receptor expressed in HEK293 EBNA cells by radioligand binding assay

Consider `COc1ccccc1N1CCN(CCN(C(=O)c2ccc([18F])cc2)c2ccccn2)CC1`, for which, in [1], the Ki (in general, the equilibrium dissociation constant of an inhibitor or competing ligand from its target) stood at 0.151 µM. For the same molecule, the Stability in the data set with Hepatocyte [2] worked out at 8.4%.

For the molecule `COc1ccccc1N1CCN(CCN(C(=O)C23CC4CC(CC(CF)(C4)C2)C3)c2ccccn2)CC1`, in data set [3], the IC50 (in general, the concentration needed to halve the response being measured) is 0.00427 µM and the Ki turned out to be 0.00182 µM.

Turning to `COc1ccccc1N1CCN(CCN(C(=O)C23C4C5C2C2C3C4C52CF)c2ccccn2)CC1` (centres undefined), the Ki in data set [4] came to 0.027 µM; in [3], 0.00054 µM; in data set [5], 0.016 µM; in data set [6], 0.122 µM; in data set [7], 0.132 µM; on D(4) dopamine receptor it was 0.071 µM. The Ki in [8] came out at 0.176 µM; in [9], 0.099 µM; in data set [10], 0.0002 µM. In addition, in [3], the IC50 came to 0.00127 µM. In addition, the logD – broadly, lipophilicity at a set pH, counting ionised and neutral species – in the data set “physchem” amounted to 2.94.

On to `COc1ccccc1N1CCN(CCN(C(=O)C23CCC(CF)(CC2)CC3)c2ccccn2)CC1`, for which the Ki in data set [4] turned out to be 0.073 µM; in data set [3], 0.00065 µM; in [5], 0.074 µM; in [6], 0.361 µM; in [7] it was 0.077 µM; at D(4) dopamine receptor, 0.084 µM. For the same molecule, the inhibition constant (Ki) in data set [8] was 0.11 µM; in data set [9], 0.079 µM; in [10], 0.0011 µM. The same molecule displayed an IC50 in data set [3] of 0.00153 µM. This molecule also yielded a logD in “physchem” of 3.37.

For the molecule `COc1ccccc1N1CCN(CCN(C(=O)C23CCC(CF)(CC2)C3)c2ccccn2)CC1`, the Ki in data set [4] was found to be 0.019 µM; in [3], 0.00086 µM; in [5], 0.036 µM; in data set [6], 0.092 µM; in data set [7] it was 0.097 µM; on D(4) dopamine receptor, 0.092 µM. Besides, the values for the Ki in [8], in data set [9] and in [10] were 0.038 µM, 0.088 µM and 0.0009 µM, respectively. In [3], this molecule showed an IC50 of 0.00202 µM. In addition, the logD in the data set “physchem” came out at 2.7.

In [3], `O=C(N(CCN1CCN(c2ccccc2O)CC1)c1ccccn1)C12CC3CC(CC(CF)(C3)C1)C2` registered an IC50 of 0.00259 µM and a Ki of 0.0011 µM.

`O=C(N(CCN1CCN(c2ccccc2O)CC1)c1ccccn1)C12C3C4C1C1C2C3C41CF` (centres undefined): in data set [3], the IC50 was 0.00135 µM and the Ki was 0.00058 µM.

For `O=C(N(CCN1CCN(c2ccccc2O)CC1)c1ccccn1)C12CCC(CF)(CC1)CC2`, in data set [3], the IC50 stood at 0.00176 µM and affinity was put at a Ki of 0.00075 µM.

In data set [3], `O=C(N(CCN1CCN(c2ccccc2O)CC1)c1ccccn1)C12CCC(CF)(CC1)C2` yielded an IC50 of 0.00174 µM and a Ki of 0.00074 µM.

Turning to `COc1ccccc1N1CCN(CCN(C(=O)C23C4C5C2C2C3C4C52C[18F])c2ccccn2)CC1` (centres undefined), the Stability stood at 73.2% in the data set with Hepatocyte [11], 17.4% in the data set with Hepatocyte [2] and 30.7% in the data set on Hepatocyte [12].

Take `COc1ccccc1N1CCN(CCN(C(=O)c2ccc([18F])c(C)c2)c2ccccn2)CC1`: in data set [1], the Ki worked out at 0.0132 µM. That is a double-digit nanomolar value.
